Measurements published in patent US12492169B2, “Aminopyridine compound and application thereof” (priority 2020, dated 2025).
Converted amounts (≈) assume the structure as drawn. Where two headings read alike, the source gives them in different places.

Legend:
[1] = system: Candida albicans WX-CA009; experiment: Minimum inhibitory concentration (MIC) test against fungi; assay type: cell-based; settings: Candida albicans, WXCA009, 24 h, ≥50% growth inhibition by eye, three independent experiments, read-out: MIC
Procedure: (§1) To test the minimum inhibitory concentration (MIC) and minimum effective concentration (MEC) of the drug against fungi.
(§2) Experimental strains: Candida parapsilosis ATCC 22019; Candida albicans ATCC MYA-2876; Candida albicans WX-CA009; Candida glabrata ATCC15126; Candida tropicalis ATCC 750;
(§3) Test medium: RPMI1640 (containing 0.165 M MOPS, pH7.0)
(§4) On the day of the experiment, the compound in the bottle was dissolved in 100% DMSO to a stock solution concentration of 6.24 mg/mL. Then, the mixture was 10-fold diluted with DMSO to 0.624 mg/mL for use.
(§5) A 2-fold gradient dilution of the compound solution (0.624 mg/mL) was performed using DMSO on a 96-microwell plate (V-bottom) to obtain 100× working solutions (wells 1 to 11). 624, 312, 156, 78, 39, 20, 10, 5, 2.5, 1.25, 0.625 μg/mL. 100% DMSO was used as a positive control (well 12). This was the compound stock plate.
(§6) Candida parapsilosis ATCC 22019 and Candida albicans ATCC MYA-2876; Candida albicans WX-CA009; Candida glabrata ATCC15126; Candida tropicalis ATCC 750 frozen at −80° C. were streaked on SDA plates and incubated aerobically in a 35±2° C. incubator for 24 hours.
(§7) On the day of the experiment, for strains Candida parapsilosis ATCC 22019, Candida albicans ATCC MYA-2876; Candida albicans WX-CA009; Candida glabrata ATCC15126; Candida tropicalis ATCC 750 and Cryptococcus neoformans H99 ATCC 208821, the plates were taken out and the clones on the plates were picked, suspended in normal saline, and then the turbidity of the fungal suspension was adjusted to OD600=0.2 using a turbidimeter. The fungal suspension contained about 3.0×10^6 CFU/mL. Then the turbidity-adjusted fungal suspension was diluted with a test medium to a concentration of about 3.0×10^3 CFU/mL. This was the inoculum.
(§8) 2 μL of 100× working solution from the compound stock plate (prepared in 3.1) was transferred to a round-bottomed 96-well plate (containing 98 μL of test medium), and then 100 μL of fungus inoculum (prepared in 3.2) was added to each well to obtain a MIC test plate. Therefore, the final test concentrations of the compounds were 6.24, 3.12, 1.56, 0.78, 0.39, 0.20, 0.10, 0.05, 0.025, 0.0125, 0.006 μg/mL. 1% DMSO was used as a growth control.
(§9) For strains Candida parapsilosis ATCC 22019; Candida albicans ATCC MYA-2876; Candida albicans WX-CA009; Candida glabrata ATCC15126; Candida tropicalis ATCC 750, all test plates were incubated aerobically in a 35±2° C. incubator for 24 hours.
(§10) After incubation, according to the criteria in Table 1 below, the test plate was observed by eye or microscope to determine the MIC (g/mL) and MEC (g/mL) of the test compound against yeast and mold.

[2] = system: Candida glabrata ATCC15126; experiment: as above; assay type: cell-based; settings: ≥50% growth inhibition by eye, three independent experiments
Procedure: as §1, §2, §3, §4, §5, §6, §7, §8, §9, §10

[3] = system: Candida parapsilosis ATCC 22019; experiment: as above; assay type: cell-based; settings: Lodderomyces parapsilosis, ATCC22019, 24 h, ≥50% growth inhibition by eye, three independent experiments (1st, 2nd, 3rd time), read-out: MIC
Procedure: as §1, §2, §3, §4, §5, §6, §7, §8, §9, §10

[4] = Pharmacokinetic evaluation in rats (IV, PO); assay type: in vivo, Sprague-Dawley strain rats; settings: Sprague-Dawley, plasma, Rat
Source text: (§11) Experimental Purpose: To evaluate the druggability of the compounds by measuring its pharmacokinetic properties in different animal species.
(§12) Experimental materials: CD-1 mice, Sprague-Dawley strain rats, beagle dogs, and crab-eating macaques.
(§13) Drug preparation: An appropriate amount of sample was weighed and then prepared into a clear or suspended solution.
(§14) Experimental procedure: The animal pharmacokinetic characteristics after intravenous injection and oral administration of the compound were tested using a standard protocol. The candidate compound was prepared as a clear solution (for intravenous injection) or a homogeneous suspension (for oral administration) during the experiment and administered to the animals as a single dose. Whole blood samples were collected at 0.083, 0.25, 0.5, 1, 2, 4, 8, and 24 hours, centrifuged at 3200 g for 10 minutes to separate the supernatant to obtain plasma samples. The plasma concentration was quantitatively analyzed by LC-MS/MS analysis method and pharmacokinetic parameters were calculated, such as peak concentration, peak time, clearance rate, half-life, area under the drug-time curve, etc.

[5] = Pharmacokinetic evaluation in dogs (IV, PO); assay type: in vivo, beagle dogs; settings: beagle, plasma, Dog
Source text: as §11, §12, §13, §14

[6] = system: Candida albicans ATCC MYA-2876; experiment: Mouse candidemia efficacy model; assay type: in vivo; settings: female CD-1 mice infected with Candida albicans ATCC MYA-2876
Procedure: Experimental animals: female CD-1 mice, 7 weeks old, 27 to 29 g, n=5 or 8;
microbial pathogen: Candida albicans ATCC MYA-2876;
inoculation level and route: 2.0 to 4.0E+05 CFU/mouse, infected by tail vein injection;
treatment: The treatment started at 1 hour after infection. Firstly, ABT was administered orally, and 2 hours later, the test compound was injected intraperitoneally once a day for 7 days in total, with an administration volume of 10 mL/kg.
Observation indicators: Changes in body weight and mortality within 7 days after infection in each group of mice.

Nc1ccc(C#CCc2ccc(COc3ccccn3)cc2)cn1 [WX004]
MIC [1]: 0.025 µg/mL (≈ 0.0793 µM) | MIC ([2]; Nakaseomyces glabratus, ATCC15126, 24 h, read-out: MIC): 0.39 µg/mL (≈ 1.24 µM) | MIC ([2]; 24 hours): 0.78 µg/mL (≈ 2.47 µM) | MIC [3]: 0.05 µg/mL (≈ 0.159 µM) | AUC ([4]; 3 mg/kg, IV, 3 mpk): 22 µM·h | Vd ([4]; 3 mg/kg, IV, 3 mpk): 1.8 L/kg | clearance ([4]; 3 mg/kg, IV, 3 mpk): 7 mL/min/kg | half-life ([4]; 3 mg/kg, IV, 3 mpk): 240 min | AUC ([4]; 30 mg/kg, PO, 30 mpk): 95 µM·h | Cmax ([4]; 30 mg/kg, PO, 30 mpk): 10 µM | Tmax ([4]; 30 mg/kg, PO, 30 mpk): 1.5 h | bioavailability ([4]; 30 mg/kg, PO, 30 mpk): 45% | AUC ([5]; 1 mg/kg, IV, 1 mpk): 2.8 µM·h | Vd ([5]; 1 mg/kg, IV, 1 mpk): 2.8 L/kg | clearance ([5]; 1 mg/kg, IV, 1 mpk): 21 mL/min/kg | half-life ([5]; 1 mg/kg, IV, 1 mpk): 150 min | AUC ([5]; 10 mg/kg, PO, 10 mpk): 14 µM·h | Cmax ([5]; 10 mg/kg, PO, 10 mpk): 6.5 µM | Tmax ([5]; 10 mg/kg, PO, 10 mpk): 45 min | bioavailability ([5]; 10 mg/kg, PO, 10 mpk): 51% | protection from death caused by candidemia ([6]; 26 mg/kg intraperitoneally once a day for 7 days after 50 mg/kg ABT orally, n=5): completely protect | survival rate ([6]; 6 mpk intraperitoneally once a day for 7 days after ABT orally, n=8): 100%
